≈ marks a conversion by molar mass, not a printed value.
Tests used:
[1] = physchem
Description: Ionization constant (acid), pKa of the compound by photometric titration assay

[2] = tested on: Escherichia coli; assay: microbe, parasite or virus in culture; settings: ATCC 25922
Description: Antibacterial activity against Escherichia coli ATCC 25922 assessed as reduction in microbial growth preincubated for 20 to 24 hrs followed by subculture in absence of compound and measured on day 4 CLSI based broth microdilution susceptibility method

[3] = physchem; settings: PBS, pH 6.5
Description: Solubility of compound in PBS at pH 6.5 incubated for over night by HPLC-UV based lyophilization solubility assay

[4] = in vitro; settings: mouse, liver microsomes
Description: Intrinsic clearance in mouse liver microsomes preincubated for 10 mins followed by NADPH regenerating system addition and measured up to 30 mins by LC/MS-MS analysis

[5] = tested on: Escherichia coli; assay: microbe, parasite or virus in culture; settings: ATCC 29213
Description: Antibacterial activity against Escherichia coli ATCC 29213 assessed as reduction in microbial growth preincubated for 20 to 24 hrs followed by subculture in absence of compound and measured on day 4 CLSI based broth microdilution susceptibility method

[6] = tested on: Klebsiella pneumoniae; assay: Antibacterial activity against Klebsiella pneumoniae ATCC BAA-2146 assessed as reduction in microbial growth preincubated for 20 to 24 hrs followed by subculture in absence of compound and measured on day 4 CLSI based broth microdilution susceptibility method; format: functional; settings: time hrs 20-24
[7] = tested on: Acinetobacter baumannii; assay: Antibacterial activity against Acinetobacter baumannii ATCC BAA-747 assessed as reduction in microbial growth preincubated for 20 to 24 hrs followed by subculture in absence of compound and measured on day 4 CLSI based broth microdilution susceptibility method; format: functional; settings: time hrs 20-24
[8] = tested on: Pseudomonas aeruginosa; assay: Antibacterial activity against Pseudomonas aeruginosa ATCC 27853 assessed as reduction in microbial growth preincubated for 20 to 24 hrs followed by subculture in absence of compound and measured on day 4 CLSI based broth microdilution susceptibility method; format: functional; settings: time hrs 20-24
[9] = tested on: Acinetobacter baumannii; assay: Antibacterial activity against Acinetobacter baumannii ATCC 51432 assessed as reduction in microbial growth preincubated for 20 to 24 hrs followed by subculture in absence of compound and measured on day 4 CLSI based broth microdilution susceptibility method; format: functional; settings: time hrs 20-24
[10] = tested on: Klebsiella pneumoniae; assay: Antibacterial activity against Klebsiella pneumoniae ATCC 10031 assessed as reduction in microbial growth preincubated for 20 to 24 hrs followed by subculture in absence of compound and measured on day 4 CLSI based broth microdilution susceptibility method; format: functional; settings: time hrs 20-24
[11] = tested on: Escherichia coli; assay: Antibacterial activity against Escherichia coli ATCC BAA-2340 assessed as reduction in microbial growth preincubated for 20 to 24 hrs followed by subculture in absence of compound and measured on day 4 CLSI based broth microdilution susceptibility method; format: functional; settings: time hrs 20-24
[12] = tested on: Escherichia coli; assay: Antibacterial activity against Escherichia coli ATCC 35218 assessed as reduction in microbial growth preincubated for 20 to 24 hrs followed by subculture in absence of compound and measured on day 4 CLSI based broth microdilution susceptibility method; format: functional; settings: time hrs 20-24
[13] = tested on: Klebsiella pneumoniae; assay: Antibacterial activity against Klebsiella pneumoniae ATCC 700603 assessed as reduction in microbial growth preincubated for 20 to 24 hrs followed by subculture in absence of compound and measured on day 4 CLSI based broth microdilution susceptibility method; format: functional; settings: time hrs 20-24
[14] = tested on: Pseudomonas aeruginosa; assay: Antibacterial activity against Pseudomonas aeruginosa ATCC BAA-2113 assessed as reduction in microbial growth preincubated for 20 to 24 hrs followed by subculture in absence of compound and measured on day 4 CLSI based broth microdilution susceptibility method; format: functional; settings: time hrs 20-24
[15] = tested on: Pseudomonas aeruginosa; assay: Antibacterial activity against Pseudomonas aeruginosa PAO1 assessed as reduction in microbial growth preincubated for 20 to 24 hrs followed by subculture in absence of compound and measured on day 4 CLSI based broth microdilution susceptibility method; format: functional; settings: time hrs 20-24
[16] = tested on: Acinetobacter baumannii; assay: Antibacterial activity against Acinetobacter baumannii ATCC 19606 assessed as reduction in microbial growth preincubated for 20 to 24 hrs followed by subculture in absence of compound and measured on day 4 CLSI based broth microdilution susceptibility method; format: functional; settings: time hrs 20-24
[17] = Distribution coefficient between octanol and buffer, log D of the compound in pH 7.4 buffer by CAMDIS assay; format: physicochemical
[18] = Protein binding in plasma (unknown origin) assessed as unbound fraction at 1 uM after 5 hrs by LC/MS-MS analysis; format: ADME, cell-free
[19] = Dissociation constant, pKa of compound by photometric titration assay; format: physicochemical
[20] = AUC/dose in iv dosed CD-1 mouse measured up to 24 hrs by LC-MS/MS analysis; format: ADME, organism-based; settings: in vivo
[21] = Clearance in iv dosed CD-1 mouse measured up to 24 hrs by LC-MS/MS analysis; format: ADME, organism-based; settings: in vivo
[22] = Volume of distribution at steady state in iv dosed CD-1 mouse measured up to 24 hrs by LC-MS/MS analysis; format: ADME, organism-based; settings: in vivo, read-out: Vdss
[23] = Plasma protein binding in iv dosed CD-1 mouse measured up to 24 hrs by LC-MS/MS analysis; format: ADME, organism-based; settings: read-out: PPB (converted)
[24] = Intrinsic clearance in mouse hepatocytes by LC/MS-MS analysis; format: ADME, cell-based, Hepatocyte
[25] = Half life in iv dosed CD-1 mouse measured up to 24 hrs by LC-MS/MS analysis; format: ADME, organism-based; settings: in vivo
[26] = Cmax/dose in iv dosed CD-1 mouse measured up to 24 hrs by LC-MS/MS analysis; format: ADME, organism-based; settings: in vivo

SMILES	pKa [1]	MIC [2] [mg/L]	solubility [3] [µg/mL]	CLint scaled at 0.5 h [4] [L/h/kg]	MIC [5] [mg/L]	MIC [6] [mg/L]	MIC [7] [mg/L]	MIC [9] [mg/L]	MIC [10] [mg/L]	MIC [11] [mg/L]	MIC [12] [mg/L]	MIC [13] [mg/L]	MIC [14] [mg/L]	MIC [15] [mg/L]	MIC [16] [mg/L]	logD [17]	further results
CCNc1cc(F)cc2c1[nH]c1ncc(-c3cnc(N4CCNCC4)nc3)c(-n3ccc(C(F)(F)F)n3)c12	8.6	1 (≈ 1.9 µM)	< 1	3.68	0.31 (≈ 0.59 µM)	–	–	–	–	–	–	–	–	–	–	–	–
CCNc1cc(F)cc2c1[nH]c1ncc(-c3cncc(C#N)c3)c(-n3ccc(N)n3)c12	2.02	8 (≈ 19.4 µM)	–	–	0.125 (≈ 0.303 µM)	–	–	–	–	–	–	–	–	–	–	–	–
CCNc1cc(F)cc2c1[nH]c1ncc(-c3cncnc3)c(-n3ccc(C(F)(F)F)n3)c12	–	0.25 (≈ 0.566 µM)	< 0.2	4.57	< 0.016	1.38	0.69	1.38	0.09	1.38	0.34	0.69	0.34	2	0.17	3.48	MIC [8]: 1.38 mg/L
CCNc1cc(F)cc2c1[nH]c1ncc(-c3cncc(C#N)c3)c(-n3nc(C(F)(F)F)c4c3CNC4)c12	6.57	1 (≈ 1.97 µM)	< 0.3	4.39	–	–	–	–	–	–	–	–	–	–	–	–	fraction unbound at 5 h, 1 µM [18]: 0.012
CCNc1cc(F)cc2c1[nH]c1ncc(-c3cnc(NC4CCNC4)nc3)c(-n3ccc(C(F)(F)F)n3)c12 (stereo unspecified)	9.55	2 (≈ 3.81 µM)	8.3 (≈ 15.8 µM)	3.61	0.25 (≈ 0.476 µM)	–	–	–	–	–	–	–	–	–	–	–	–
CCNc1cc(F)cc2c1[nH]c1ncc(-c3cnc4ccnn4c3)c(-n3ccc(C(F)(F)F)n3)c12	–	0.25 (≈ 0.52 µM)	–	–	0.31 (≈ 0.645 µM)	1.5	0.75	1.5	0.38	0.75	0.75	0.75	0.75	2	0.38	3.54	MIC [8]: 1.5 mg/L
CCNc1cc(F)cc2c1[nH]c1ncc(-c3cnc(OC4CNC4)nc3)c(-n3ccc(C(F)(F)F)n3)c12	8.62	1 (≈ 1.95 µM)	–	–	0.63 (≈ 1.23 µM)	–	–	–	–	–	–	–	–	–	–	–	–
CCNc1cc(F)cc2c1[nH]c1ncc(-c3cnc(OC)nc3)c(-n3nc(C(F)(F)F)c4c3CNC4)c12	–	1 (≈ 1.95 µM)	4 (≈ 7.81 µM)	4.64	–	–	–	–	–	–	–	–	–	–	–	–	fraction unbound at 5 h, 1 µM [18]: 0.016
CCNc1cc(F)cc2c1[nH]c1ncc(-c3cncc(C(=O)O)c3)c(-n3ccc(C(F)(F)F)n3)c12	–	> 16	–	–	1 (≈ 2.06 µM)	–	–	–	–	–	–	–	–	–	–	1.9	pKa [19]: 3.57
CCNc1cc(F)cc2c1[nH]c1ncc(-c3cncc(N)c3)c(-n3ccc(C(F)(F)F)n3)c12	4.84	0.25 (≈ 0.549 µM)	–	–	< 0.016	5.7	2.85	5.7	0.178	2.85	2.85	1.42	1.42	2	1.42	3.44	MIC [8]: 2.85 mg/L
CCNc1cc(F)cc2c1[nH]c1ncc(-c3cncc(C#N)c3)c(-n3ccc(C(F)(F)F)n3)c12	–	0.5 (≈ 1.07 µM)	< 0.3	3.71	< 0.016	5.82	1.45	> 23.3	0.73	2.91	1.45	1.45	1.45	2	0.73	3.63	MIC [8]: 5.82 mg/L
CCNc1cc(F)cc2c1[nH]c1ncc(-c3cncc(C#N)c3)c(-n3cc(CN)c(C(F)(F)F)n3)c12	8.08	< 0.25	90 (≈ 182 µM)	2.82	–	8	0.5	1	< 0.03	2	1	4	2	2	1	–	AUC/dose [20]: 324 kg·ng·h/mL/mg; clearance [21]: 3 L/h/kg; Vd [22]: 5.8 L/kg; fraction unbound at 24 h [23]: 0.11; fraction unbound at 5 h, 1 µM [18]: 0.012; CLH [24]: 48.6 µg/mL; half-life [25]: 1.8 h; Cmax/dose [26]: 305 kg·ng/mL/mg
CCNc1cc(F)cc2c1[nH]c1ncc(-c3cncc(C#N)c3)c(-n3ncc4c3CNC4)c12	7.62	2 (≈ 4.56 µM)	34 (≈ 77.5 µM)	4.22	–	–	–	–	–	–	–	–	–	–	–	–	fraction unbound at 5 h, 1 µM [18]: 0.044; CLH [24]: 74.6 µg/mL
CCNc1cc(F)cc2c1[nH]c1ncc(-c3cncc(C(=O)NOC)c3)c(-n3ccc(C(F)(F)F)n3)c12	–	0.5 (≈ 0.974 µM)	–	–	< 0.125	–	–	–	–	–	–	–	–	–	–	3.41	–
